Assay [1] has as its system oral substrate accumulation (dental plaque, calculus, and tooth stain). The assay is described as follows: Twelve month feeding study in cats: oral substrate accumulation by Logan-Boyce quantification. The following applies: composition comprising 1.2% lactic acid fed to cats for six months. The assay is classed as in vivo, domestic cats. The source says:
This study was designed to assess the effect of lactic acid on oral substrate accumulation (dental plaque, calculus, and tooth stain) in cats. Initially, all cats received a professional dental prophylaxis at this baseline using standard, well-established procedures. Six and twelve months later, dental substrate accumulation (dental plaque, calculus, and tooth stain) was quantified using the Logan-Boyce quantification method (See Logan E I, Boyce. Oral health assessment in dogs: parameters and methods. J. Vet Dent; 11(2):58-63.) Plaque is measured by applying a disclosing solution (2% aqueous eosin) to the animal's teeth. The teeth to be scored are divided into gingival and occlusal halves, and each half is assigned a separate numerical score for plaque coverage (percentage of the tooth area stained) and thickness (intensity of staining) The score for each tooth half is calculated by multiplying the coverage and thickness scores. The gingival and occlusal scores are then added together for a tooth score. The sum of the teeth scores is identified as the total tooth score, and the whole mouth mean score is calculated by averaging the total teeth scores for each animal. The plaque scoring method gives a number of 0-4 by the percentage of plaque coverage with 0=no plaque detected, 1=1-24% coverage, 2=25-49% coverage, 3=50-74% coverage and 4=75-100% coverage. […]

Assay [2] has the same test system. The assay is described as follows: 28 day feeding study in dogs: oral substrate accumulation by Logan-Boyce quantification. The assay is classed as in vivo, beagle dogs. The settings on record: dog food comprising 1.5% lactic acid fed to dogs for one month. The protocol: Plaque is measured by applying a disclosing solution (2% aqueous eosin) to the animal's teeth. The teeth to be scored are divided into gingival and occlusal halves, and each half is assigned a separate numerical score for plaque coverage (percentage of the tooth area stained) and thickness (intensity of staining) The score for each tooth half is calculated by multiplying the coverage and thickness scores. The gingival and occlusal scores are then added together for a tooth score. The sum of the teeth scores is identified as the total tooth score, and the whole mouth mean score is calculated by averaging the total teeth scores for each animal. The plaque scoring method gives a number of 0-4 by the percentage of plaque coverage with 0=no plaque detected, 1=1-24% coverage, 2=25-49% coverage, 3=50-74% coverage and 4=75-100% coverage. […] The whole mouth score is calculated by adding the teeth scores and dividing by the number of teeth scored. Calculus is measured by air-drying the teeth to be scored, dividing those teeth vertically into mesial, buccal, and distal thirds, and assigning each third a numerical score based on the percentage of calculus coverage with 0=no calculus detected, 1=1-24% coverage, 2=25-49% coverage, 3=50-74% coverage, and 4=75-100% coverage. […] The whole mouth score is calculated by adding the teeth scores and dividing by the number of teeth scored. […]

On to `CC(O)C(=O)O` (centres unmarked) [lactic acid], for which the “Effect on formation of dental plaque, calculus and stain (in words)” value in assay [1] is “inhibits formation of dental plaque, calculus and stain”. Further, in assay [2], the “Effect on tooth calculus and stain (in words)” value was “inhibits tooth calculus and stain”.

The values are drawn from patent US20140314819A1, “COMPOSITIONS AND METHODS FOR TREATING DENTAL CONDITIONS” (HILL'S PET NUTRITION, INC., priority 2011, published 2014).
